Data set [1] deals with T1, human enzyme (PNP) (Homo sapiens, UniProt P00491).
T1 sequence (P00491 1-289): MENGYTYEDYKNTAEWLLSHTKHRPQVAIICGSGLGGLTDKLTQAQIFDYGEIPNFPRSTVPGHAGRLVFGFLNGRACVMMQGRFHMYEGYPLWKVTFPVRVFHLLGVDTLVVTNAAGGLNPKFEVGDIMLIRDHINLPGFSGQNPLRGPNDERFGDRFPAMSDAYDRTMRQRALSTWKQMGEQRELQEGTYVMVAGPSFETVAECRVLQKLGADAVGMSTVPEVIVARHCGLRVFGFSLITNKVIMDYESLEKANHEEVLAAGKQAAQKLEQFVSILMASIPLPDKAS
The conditions noted are these: cited from earlier work.

Data set [2] addresses E. coli PNP (Escherichia coli, UniProt P0ABP8). The settings on record: abrogates E. coli PNP activity; cited from earlier work.
The test system of data set [3] is HeLa cells. Description: Ad-PNP mediated cell killing in vitro, crystal violet staining. It is filed as cell-based, human. The conditions noted are these: MeP-dR 40 micrograms/milliliter, adenoviral MOI 0.1-100, stained 6 days post infection. As to the method: Confluent HeLa cells are infected with Ad-PNP at various MOIs. MeP-dR is added at 40 micrograms/milliliter in one set of cells at 24 hours post infection. At 6 days post infection, all cultures are stained with Crystal Violet to visualize living cells.
FIG. 17 depicts results using an Ela deleted adenoviral vector encoding E. coli PNP as described herein.

Data set [4] concerns D54 glioma tumors (lentivirus PNP). Nature of the data set: D54 tumors expressing E. coli PNP from lentivirus, prodrug treatment in vivo. More on the design: species or system human. The settings on record: MeP-dR; 10%, 5%, 2.5% PNP expressing cells; p<0.05 (2.5%), p<0.005 (5% and 10%). An excerpt: Syngeneic models are also used.
D54 glioma tumors are established from a stable cell line expressing E. coli PNP by a strong, CMV-based promoter in a lentiviral vector. FIG. 10 illustrates results. Open Circles: Tumors established from 10% PNP expressing/90% non-expressing tumor cells; PNP activity 9600±1300 units on day 14. Open Triangles: 5% expressing, 95% non-expressing tumor cells; PNP activity 5500±1700 units. Open Squares: Tumors established from 2.5% expressing, 97.5% non-expressing (PNP activity 3600±530 units). Closed symbols depict growth of corresponding (10%, 5%, 2.5%) PNP tumors treated with vehicle (saline control). At least six animals are studied per group. Identically treated animals from each study arm are sacrificed just prior to initiation of MeP-dR therapy (day 14) to measure intratumoral PNP acitivity. […] These experiments test the influence of substantially higher PNP activities on bystander killing in vivo. PNP activity in 300 mg tumors comprised of 100% lentivirus transduced cells is found to be approximately 126,000 PNP units (one unit=1 nmole MeP-dR converted per mg tumor tissue per hour). When the level of E. coli PNP is studied using lentiviral expression, improvements in bystander killing are observed as shown in FIG. 10.
FIG. 12 depicts a study in which 100% of cells express E. coli PNP using lentivirus. Complete regression and cures of tumors (12 of 12) are obtained with F-araAMP following a 3 day treatment schedule. […] Adjusting the schedule of F-araAMP may also improve bystander killing in vivo (FIG. 16).
Tumors in which 100% of cells expressed E. coli PNP are treated with a maximally tolerated dose (MTD, 100 mg/kg schedule, open circles) or half the MTD (closed triangles). Six animals are included per treatment group. […] PNP activity in these tumors is 126,000±16,000 units on the day of drug therapy.
Tumors are established from an inoculum in which 10% of cells expressed E. coli PNP. PNP expression on the day of drug treatment is 14,200±681 PNP units. Anti-tumor efficacy is greater at 100 mg/kg F-araAMP (open circles) than at 50 mg/kg (closed triangles) or 25 mg/kg (open triangles) given over a standard 3 day schedule (q2h×5, q1d×3 days).
D54 glioma tumors are established with decreasing proportions of PNP expressing cells (and increasing non-expressing (parental) cells). (open symbols: F-araAMP therapy; closed symbols: no prodrug therapy; circles: 2.5%; triangles 5%, and squares 10% PNP transduced cells). F-araAMP was 100 mg/kg q2h×5, q1d×3.
Tumors comprised of 5% PNP expressing cells and 2 different fludarabine schedules are shown.

The conditions of data set [5]: in vivo; cited from earlier work.
Data set [6] deals with human glioma tumors. Description: HSV-PNP intratumoral inoculation of human glioma tumors in mice. The data set is classed as in vivo. The settings on record: intratumoral MeP-dR 168 mg/kg daily x 3 days with HSV-PNP. The method, then:
Using HSV-PNP, a composition including 17 million pfu of the virus in 50 microliters is administered on day 16 following establishment of human glioma tumors in mice. HSV-PNP by itself slows growth of tumors following intratumoral inoculation, approximately 20 days delay to one tumor doubling.

Data set [7] concerns D54 glioma tumors (MuLv-PNP transduced). Description: D54 tumors expressing E. coli PNP from MuLV, prodrug treatment in vivo. The conditions noted are these: MeP-dR. As to the method: For example, in one in vivo tumor model, tumors are established in animals by subcutaneous implantation of about 10^7 cells into the axillary region of 6-10 mice. Athymic (or scid) mice are used for models of certain human tumors including cells such as D54, HCT-15, and SR475 head/neck. Syngeneic models are also used. For instance, mouse tumors are established using Colon 26 and G26 glioma cells.
The resulting solid tumors are measured twice weekly in two dimensions and the mass calculated using the formula for a prolate ellipsoid, [length (mm)×width^2 (mm)]/2=mg, assuming unit density. The data will permit the determination of a tumor volume doubling time, % “no takes”, and % spontaneous regressions.
PNP expression in MuLv was driven by an SV40 promoter. Mice are given non-absorbable antibiotics in their drinking water prior to treatment with high doses of MeP-dR (e.g. 168 mg/kg/d×3d) to minimize intestinal cleavage of the compound (Bharara, S., et al., 2005, Human Gene Therapy 16:339-347.). Antibiotics are not co:administered for lower doses of MeP-dR, or with less avid substrates such as fludarabine.

The text below walks through data of patent US20100151572A1, “ANTI-TUMORAL COMPOSITIONS METHODS” (priority 2005, published 2010).

As a reminder, the Ki is a measure of affinity in units of concentration, obtained from inhibition or displacement.

Chain of E. coli PNP (P0ABP8 whole entry): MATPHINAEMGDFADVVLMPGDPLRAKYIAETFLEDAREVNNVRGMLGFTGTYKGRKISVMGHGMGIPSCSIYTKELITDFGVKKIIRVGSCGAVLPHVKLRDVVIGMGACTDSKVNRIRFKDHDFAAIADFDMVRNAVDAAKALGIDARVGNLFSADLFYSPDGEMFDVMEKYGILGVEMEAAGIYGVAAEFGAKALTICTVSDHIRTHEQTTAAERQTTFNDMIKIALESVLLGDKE

With `Nc1ncnc2c([C@@H]3O[C@H](CO)[C@@H](O)[C@H]3O)[nH]nc12` [Formycin A], in data set [1], the “activity against the human enzyme” value is “inactive”. In data set [2], the inhibition constant Ki was 5 µM.
On to `Cc1ncnc2c1ncn2[C@H]1C[C@H](O)[C@@H](CO)O1` [MeP-dR, 9-(2-deoxy-beta-D-ribofuranosyl]-6-methylpurine], for which, in data set [3], the “cell killing in combination with Ad-PNP” value is listed as “sufficient to eliminate populations of cancer cells”. The “antitumor effects vs non-treatment groups” value in data set [4] is on record as “significantly different from non-treatment groups”. Besides, in data set [5], the circulating half life was approximately 20 min and the “half life in serum” value is 15 to 20 min. Moreover, the “anti-tumor effect with HSV-PNP” value in data set [6] was “improves tumor regressions and arrest of tumor growth”. Also, the “anti-tumor effect vs non-treatment groups” value in data set [7] (20% PNP-expressing / 80% parental cells, p<0.002) was “significantly different from non-treatment groups”. Besides, the tolerability of treatments entry in data set [7] (20% PNP (MuLv) and parental tumors) is “well tolerated without limiting weight loss or lethality”.
